The data set can be described thus: Compressibility index of the active ingredient. To be noted: 2,000 mg compressed at 0.5 N, remaining weight after three droppings from 1 cm, n=5. In kind it is physicochemical. The method, then:
The active ingredient weighing 2,000 mg was introduced into a polycarbonate tube (a hollow cylindrical form with an inner diameter of 12.5 mm and a height of 52.0 mm; “polycarbonate spacer (hollow) CPC (CPC-1252); manufactured by Hirosugi Keiki Co., Ltd.) which was left to stand on a stainless steel bat. Next, by using a tension and compression testing machine (“SDT—503 NB”; manufactured by Imada Seisakusho Co., Ltd.), the active ingredient within the polycarbonate tube was compressed by a cylindrical tool having a contact surface of 11.28 mmΦ in diameter to prepare a compressed product (compression condition; speed: 100 mm/min., load: 0.5 N, load maintaining time: 1 sec.). […]
The lifted polycarbonate tube was released from the fingers, and dropped down. After repeating this procedure three times, the remaining weight of the polycarbonate tube containing the compressed product of the active ingredient was measured as a weight after test.
The amount of powder flowing out from the polycarbonate tube was determined by subtracting the weight after test from the weight before test. Furthermore, the remaining weight of the compressed product of the active ingredient was determined by subtracting the amount of powder flowing out from the polycarbonate tube from the weight before test. […]

`Cc1cc2nc3c(=O)[nH]c(=O)nc-3n(C[C@H](O)[C@H](O)[C@H](O)CO)c2cc1C` [vitamin B2, riboflavin] showed a compressibility index of 5%.
